# Results from patent US10358447B2, “Substituted 2-N-hydroxy-1,3-dioxo-1,2,3,4-tetrahydronaphthyridines, and methods of making and using same” (ARBUTUS BIOPHARMA CORPORATION, priority 2017, dated 2019).
# Like-named read-outs stand apart in the source and are kept apart here.
# Key:
# Assay type in all cases: cell-based
# [1] = system: HA-tagged HBeAg (HBV) in DESHAe82 cells; assay: AlphaLisa eAg assay: HA-HBeAg level in DESHAe82 cell culture (anti-HBV / anti-cccDNA activity); conditions: Hepatitis B virus, 216 h, read-out: AlphaLisa_eAg EC50 (μM)
# Experimental: Evaluation of anti-HBV activity of the compounds in in vitro cell culture studies was conducted using a modification of the assay system described in Cai et al., 2012, Antimicrobial Agents Chemotherapy 56(8):4277-88 and PCT/EP/2015/06838. In the DESHAe82 cell culture system, the HA epitope-tagged secreted HBV “e antigen” (HBeAg) and HBV precore RNA are produced only from the cccDNA circular template that is formed after HBV replication in absence of Tetracycline (Tet). The DESHAe82 cell line produces high levels of cccDNA synthesis and HA-HBeAg, and high specific readout signals with low noise. Two assay systems, a chemiluminescence ELISA (CLIA) and a proximity […] assay (AlphaLISA) were developed and used for high-sensitivity detection of HA-tagged HBeAg.
# To test the compound, DESHAe82 were plated in 96 well tissue-culture treated microtiter plates in DMEM/F12 medium supplemented with 10% fetal bovine serum+1% penicillin-streptomycin with Tet, and incubated in a humidified incubator at 37° C. and 5% CO2 overnight. Next day, the cells were switched to fresh medium without Tet and treated with a test compound, over a range of concentrations (compound was solubilized in 100% DMSO before dilution in cell culture media, and the final DMSO concentration in the assay was 0.5%), and incubated for a duration of 9 days in a humidified incubator at 37° C. and 5% CO2. Untreated negative control samples (0.5% DMSO only) were included on each plate in multiple wells. On day 9, media was harvested and removed to a fresh plate, and level of HA-HBeAg was determined by CLIA or AlphaLISA. Anti-cccDNA activity of each test compound concentration was calculated as a percentage of HA-HBeAg signal detected in negative control samples versus compound-treated samples, and EC50 value for each compound was defined as the concentration that reduced the HA-HBeAg signal by 50%.
# [2] = system: HBV rcDNA in HepDE19 cells; assay: HepDE19 assay with bDNA quantitation of HBV rcDNA; conditions: Hepatitis B virus
# Text: (§1) The invention further provides a method of screening compounds for activity against HBV, as exemplified herein. In certain embodiments, the method comprises a HepDE19 assay with bDNA quantitation of HBV rcDNA. HepDE19 cell culture system is a HepG2 (human hepatocarcinoma) derived cell line that supports HBV DNA replication and cccDNA formation in a tetracycline (Tet)-regulated manner and produces HBV rcDNA and a detectable reporter molecule dependent on the production and maintenance of cccDNA (Tavis & Lomonosova, 2015, Antiviral Res. 118:132-138). In certain non-limiting embodiments, HepDE19 (50,000 cells/well) are plated in 96 well collagen-coated tissue-culture treated microtiter plates in DMEM/F12 medium supplemented with 10% fetal bovine serum, 1% penicillin-streptomycin and 1 μg/ml tetracycline and incubated in a humidified incubator at 37° C. and 5% CO2 overnight. Next day, the cells are switched to fresh medium without tetracycline and incubated for 4 hrs at 37° C. and 5% CO2. The cells are treated with fresh Tet-free medium with compounds at concentrations starting at 25 μM and a serial, ½ log, 8-point, titration series in duplicate. The final DMSO concentration in the assay is 0.5%. The plates are incubated for 7 days in a humidified incubator at 37° C. and 5% CO2. Following a 7 day-incubation, the level of rcDNA present in the inhibitor-treated wells is measured using a Quantigene 2.0 bDNA assay kit (Affymetrix, Santa Clara, Calif.) with HBV specific custom probe set and manufacturer's instructions.
# In order to differentiate HBV RNaseH inhibitors from other classes of HBV inhibitors (such as, for example, nucleos(t)ide analogs or capsid inhibitors), the assay method is configured by incorporating the quantitation of both the minus-strand and the plus-strand of HBV rcDNA levels using specifically designed HBV probe sets. This is based on the observation that inhibition of RNaseH enzyme activity results in a block of the synthesis of the plus strand synthesis by the viral polymerase that follows the synthesis of the minus-strand of rcDNA (Guo, et al., 2007, J. Virol. 81:12472-12484). […] In contrast, treatment with HBV inhibitors such as a nucleos(t)ide analogs or capsid inhibitors reduces production of both strands of HBV rcDNA in cells. Concurrently, the effect of compounds on cell viability can be assessed using replicate plates, plated at a density of 5,000 cells/well and incubated for 4 days, to determine the ATP content as a measure of cell viability using the cell-titer glo reagent (CTG; Promega Corporation, Madison, Wis.) as per manufacturer's instructions. The plates are read using a Victor luminescence plate reader (PerkinElmer Model 1420 Multilabel counter), and the relative luminescence units (RLU) data generated from each well was calculated as % inhibition of the untreated control wells and analyzed using XL-Fit module in Microsoft Excel to determine EC50 and EC90 (bDNA) and CC50 (CTG) values using a 4-parameter curve fitting algorithm.
# HepDE19 cell culture system is a HepG2 (human hepatocarcinoma) derived cell line that supports HBV DNA replication and cccDNA formation in a tetracycline (Tet)-regulated manner and produces HBV rcDNA and a detectable reporter molecule dependent on the production and maintenance of cccDNA (Guo, et al., 2007, J. Virol. 81:12472-12484). HepDE19 (50,000 cells/well) were plated in 96 well collagen-coated tissue-culture treated microtiter plates in DMEM/F12 medium supplemented with 10% fetal bovine serum, 1% penicillin-streptomycin and 1μg/ml tetracycline and incubated in a humidified incubator at 37° C. and 5% CO2 overnight. Next day, the cells were switched to fresh medium without tetracycline and incubated for 4 hrs at 37° C. and 5%CO2. The cells were treated with fresh Tet-free medium with compounds at concentrations starting at 25 μM and a serial, ½ log, 8-point, titration series in duplicate. The final DMSO concentration in the assay was 0.5%. […]
# [3] = system: plus-strand of HBV rcDNA in HepDE19 cells; assay: HepDE19 assay with bDNA quantitation of the plus-strand of HBV rcDNA; conditions: Hepatitis B virus
# Text: as §1
# In order to differentiate HBV RNaseH inhibitors from other classes of HBV inhibitors (such as, for example, nucleos(t)ide analogs or capsid inhibitors), the assay method is configured by incorporating the quantitation of both the minus-strand and the plus-strand of HBV rcDNA levels using specifically designed HBV probe sets. […] Concurrently, the effect of compounds on cell viability can be assessed using replicate plates, plated at a density of 5,000 cells/well and incubated for 4 days, to determine the ATP content as a measure of cell viability using the cell-titer glo reagent (CTG; Promega Corporation, Madison, Wis.) as per manufacturer's instructions. The plates are read using a Victor luminescence plate reader (PerkinElmer Model 1420 Multilabel counter), and the relative luminescence units (RLU) data generated from each well was calculated as % inhibition of the untreated control wells and analyzed using XL-Fit module in Microsoft Excel to determine EC50 and EC90 (bDNA) and CC50 (CTG) values using a 4-parameter curve fitting algorithm. […]
# [4] = 168 h, HepDE19 cells, 7 day incubation, top concentration 25 μM, read-out: bDNA_RC DNA EC50
# [5] = 168 h, HepDE19 cells, 7 day incubation, plus-strand probe set, top concentration 25 μM, read-out: bDNA_RC DNA PS EC50
# [6] = HepDE19, 168 h, read-out: bDNA_RC DNA EC50 (μM)
Structure (SMILES),EC50 [1],"EC50 [2, 4]","EC50 [3, 5]","EC50 ([3]; HepDE19, 168 h, read-out: bDNA_RC DNA PS EC50 (μM))","EC50 [2, 6]"
"CCOC(=O)C1C(=O)N(O)C(=O)c2ccc(OC)nc21 (stereo not shown) [Compound 1, Ethyl 6-hydroxy-2-methoxy-5,7-dioxo-5,6,7,8-tetrahydro-1,6-naphthyridine-8-carboxylate]",2.4 µM,> 25 µM,,,
"CCN(CC)C(=O)C1C(=O)N(O)C(=O)c2ccc(OC)nc21 (stereo not shown) [Compound 2, N,N-diethyl-6-hydroxy-2-methoxy-5,7-dioxo-5,6,7,8-tetrahydro-1,6-naphthyridine-8-carboxamide]",1.5 µM,> 25 µM,11.2 µM,,
"COc1ccc2c(n1)C(C(=O)Nc1ccc(Cl)cc1)C(=O)N(O)C2=O (stereo not shown) [Compound 3, N-(4-chlorophenyl)-6-hydroxy-2-methoxy-5,7-dioxo-5,6,7,8-tetrahydro-1,6-naphthyridine-8-carboxamide]",9.6 µM,,,16 µM,9.4 µM
"COc1ccc2c(n1)C(C(=O)Nc1ccc(F)cc1)C(=O)N(O)C2=O (stereo not shown) [Compound 4, N-(4-fluorophenyl)-6-hydroxy-2-methoxy-5,7-dioxo-5,6,7,8-tetrahydro-1,6-naphthyridine-8-carboxamide]",9.6 µM,,,,> 25 µM
"COc1ccc2c(n1)C(C(=O)NCc1ccc(Cl)cc1)C(=O)N(O)C2=O (stereo not shown) [Compound 5, N-(4-chlorobenzyl)-6-hydroxy-2-methoxy-5,7-dioxo-5,6,7,8-tetrahydro-1,6-naphthyridine-8-carboxamide]",> 50 µM,> 25 µM,> 25 µM,,
"O=C(NCc1ccc(F)cc1)C1C(=O)N(O)C(=O)c2ccc(O)nc21 (stereo not shown) [Compound 6, N-(4-fluorobenzyl)-2,6-dihydroxy-5,7-dioxo-5,6,7,8-tetrahydro-1,6-naphthyridine-8-carboxamide]",3.6 µM,> 25 µM,15 µM,,
